Experimental data from US20250074891A1 (Anaxis Pharma Pty Ltd., priority 2021, published 2025).

Legend:
Conditions in all cases: Table 35
[1] = molecular target: RIP1 (Homo sapiens (Human), UniProt Q13546); test: KINOMEscan binding assay, RIP1
[2] = molecular target: MLKL (full length) (Homo sapiens (Human), UniProt Q8NB16); test: KINOMEscan binding assay, MLKL (full length)
Protocol: (§1) Kinase assays. For most assays, kinase-tagged T7 phage strains were grown in parallel in 24-well blocks in an E. coli host derived from the BL21 strain. E. coli were grown to log-phase and infected with T7 phage from a frozen stock (multiplicity of infection=0.4) and incubated with shaking at 32° C. until lysis (90-150 minutes).
(§2) The Hill Slope was set to −1.

[3] = molecular target: RIP3 (Homo sapiens (Human), UniProt Q9Y572); test: KINOMEscan binding assay, RIP3
Protocol: as §1, §2

Sequence of MLKL (full length) (Q8NB16 whole entry): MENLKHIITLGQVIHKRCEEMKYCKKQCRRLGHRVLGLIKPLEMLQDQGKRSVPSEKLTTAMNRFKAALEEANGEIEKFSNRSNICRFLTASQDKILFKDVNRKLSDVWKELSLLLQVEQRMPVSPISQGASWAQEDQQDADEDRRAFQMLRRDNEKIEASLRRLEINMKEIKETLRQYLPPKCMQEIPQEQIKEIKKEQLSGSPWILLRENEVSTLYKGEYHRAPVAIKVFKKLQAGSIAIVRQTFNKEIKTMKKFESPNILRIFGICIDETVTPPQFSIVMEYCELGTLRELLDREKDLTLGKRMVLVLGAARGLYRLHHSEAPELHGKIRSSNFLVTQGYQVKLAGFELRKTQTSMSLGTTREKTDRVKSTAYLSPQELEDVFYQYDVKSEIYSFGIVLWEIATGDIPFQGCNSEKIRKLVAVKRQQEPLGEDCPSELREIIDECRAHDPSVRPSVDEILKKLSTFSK
Sequence of RIP3 (Q9Y572 whole entry): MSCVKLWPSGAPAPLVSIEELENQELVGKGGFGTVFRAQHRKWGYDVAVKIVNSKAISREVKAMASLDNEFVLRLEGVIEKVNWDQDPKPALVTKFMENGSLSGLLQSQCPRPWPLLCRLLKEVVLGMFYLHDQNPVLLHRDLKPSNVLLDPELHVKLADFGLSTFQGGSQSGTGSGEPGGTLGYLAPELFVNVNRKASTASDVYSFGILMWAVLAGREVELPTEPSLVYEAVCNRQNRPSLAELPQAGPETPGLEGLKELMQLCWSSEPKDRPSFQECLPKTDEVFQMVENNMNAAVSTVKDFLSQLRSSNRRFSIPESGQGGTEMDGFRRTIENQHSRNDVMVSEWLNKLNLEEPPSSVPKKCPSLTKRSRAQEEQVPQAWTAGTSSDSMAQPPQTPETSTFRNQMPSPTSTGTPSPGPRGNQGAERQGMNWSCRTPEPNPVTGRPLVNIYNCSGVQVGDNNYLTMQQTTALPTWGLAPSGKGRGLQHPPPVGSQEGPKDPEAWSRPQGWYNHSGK
Sequence of RIP1 (Q13546 whole entry): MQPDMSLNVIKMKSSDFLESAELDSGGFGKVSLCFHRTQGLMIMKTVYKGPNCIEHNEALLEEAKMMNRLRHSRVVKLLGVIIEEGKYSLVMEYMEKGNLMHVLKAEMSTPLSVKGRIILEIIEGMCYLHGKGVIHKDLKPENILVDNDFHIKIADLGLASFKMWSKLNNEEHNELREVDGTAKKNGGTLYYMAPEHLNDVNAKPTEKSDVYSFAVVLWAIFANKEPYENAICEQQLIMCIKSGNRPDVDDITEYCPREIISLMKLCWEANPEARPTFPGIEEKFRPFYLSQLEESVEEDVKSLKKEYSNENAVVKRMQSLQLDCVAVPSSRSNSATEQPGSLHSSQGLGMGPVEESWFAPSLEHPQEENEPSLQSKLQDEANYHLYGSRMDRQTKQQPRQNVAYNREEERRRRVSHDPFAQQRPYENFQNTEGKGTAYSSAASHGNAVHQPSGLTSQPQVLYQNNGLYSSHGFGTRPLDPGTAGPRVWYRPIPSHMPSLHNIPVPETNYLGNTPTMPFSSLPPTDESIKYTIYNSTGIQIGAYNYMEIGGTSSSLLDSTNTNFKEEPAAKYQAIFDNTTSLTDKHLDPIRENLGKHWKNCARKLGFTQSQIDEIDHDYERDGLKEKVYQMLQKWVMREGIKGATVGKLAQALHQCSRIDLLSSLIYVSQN

Row | Kd [1] | Kd [2] | Kd [3] | SMILES
1 | > 30 µM | < 0.01 µM | > 30 µM | C[C@H](Oc1cc(-c2n[nH]c(Nc3cnccn3)c2C(N)=O)ccc1NS(=O)(=O)CC(F)(F)F)c1ccc(F)cc1 [Compound 164, (S)-3-(3-(1-(4-fluorophenyl)ethoxy)-4-((2,2,2-trifluoroethyl)sulfonamido)phenyl)-5-(pyrazin-2-ylamino)-1H-pyrazole-4-carboxamide]
2 | > 30 µM | < 0.01 µM | > 30 µM | NC(=O)c1c(-c2ccc(NS(=O)(=O)CC(F)(F)F)c(OCc3ccc(Cl)c(F)c3)c2)n[nH]c1Nc1cnccn1 [Compound 165, 3-(3-((4-chloro-3-fluorobenzyl)oxy)-4-((2,2,2-trifluoroethyl)sulfonamido)phenyl)-5-(pyrazin-2-ylamino)-1H-pyrazole-4-carboxamide]
3 | > 30 µM | < 0.01 µM | > 30 µM | CCS(=O)(=O)Nc1ccc(-c2n[nH]c(Nc3cnccn3)c2C(N)=O)cc1OCc1ccc(Cl)c(F)c1 [Compound 166, 3-(3-((4-chloro-3-fluorobenzyl)oxy)-4-(ethylsulfonamido)phenyl)-5-(pyrazin-2-ylamino)-1H-pyrazole-4-carboxamide]
4 | > 30 µM | < 0.01 µM | > 30 µM | NC(=O)c1c(-c2ccc(NS(=O)(=O)CC(F)(F)F)c(Oc3cccc(F)c3)c2)n[nH]c1Nc1cnccn1 [Compound 167, 3-(3-(3-fluorophenoxy)-4-((2,2,2-trifluoroethyl)sulfonamido)phenyl)-5-(pyrazin-2-ylamino)-1H-pyrazole-4-carboxamide]
5 | > 30 µM | < 0.01 µM | > 30 µM | NC(=O)c1c(-c2ccc(NS(=O)(=O)CC(F)(F)F)c(Oc3ccc(Cl)cc3)c2)n[nH]c1Nc1cnccn1 [Compound 168, 3-(3-(4-chlorophenoxy)-4-((2,2,2-trifluoroethyl)sulfonamido)phenyl)-5-(pyrazin-2-ylamino)-1H-pyrazole-4-carboxamide]
6 | > 30 µM | < 0.01 µM | > 30 µM | NC(=O)c1c(-c2ccc(NS(=O)(=O)C3CC3)c(OCc3ccc(F)cc3)c2)n[nH]c1Nc1cnccn1 [Compound 169, 3-(4-(cyclopropanesulfonamido)-3-((4-fluorobenzyl)oxy)phenyl)-5-(pyrazin-2-ylamino)-1H-pyrazole-4-carboxamide]
7 | > 30 µM | < 0.01 µM | > 30 µM | NC(=O)c1c(-c2ccc(NS(=O)(=O)CC(F)(F)F)c(OCc3ccc(F)cc3)c2)n[nH]c1Nc1cnccn1 [Compound 170, 3-(3-((4-fluorobenzyl)oxy)-4-((2,2,2-trifluoroethyl)sulfonamido)phenyl)-5-(pyrazin-2-ylamino)-1H-pyrazole-4-carboxamide]
8 | > 30 µM | < 0.01 µM | > 30 µM | CCS(=O)(=O)Nc1ccc(-c2n[nH]c(Nc3cnccn3)c2C(N)=O)cc1OCc1ccc(F)cc1C [Compound 171, 3-(4-(ethylsulfonamido)-3-((4-fluoro-2-methylbenzyl)oxy)phenyl)-5-(pyrazin-2-ylamino)-1H-pyrazole-4-carboxamide]

Further lines, the molecule ahead of its results:

Row | SMILES | Kd [1] | Kd [2] | Kd [3]
9 | Cc1cnc(Nc2[nH]nc(-c3ccc(NS(=O)(=O)CC(F)(F)F)c(OCc4ccc(Cl)c(F)c4)c3)c2C(N)=O)cn1 [Compound 146, 3-(3-((4-chloro-3-fluorobenzyl)oxy)-4-((2,2,2-trifluoroethyl)sulfonamido)phenyl)-5-((5-methylpyrazin-2-yl)amino)-1H-pyrazole-4-carboxamide] | > 30 µM | < 0.01 µM | > 30 µM
10 | NC(=O)c1c(-c2ccc(NS(=O)(=O)C(F)F)c(Oc3ccc(F)cc3)c2)n[nH]c1Nc1cccc(C(F)(F)F)n1 [Compound 147, 3-(4-((difluoromethyl)sulfonamido)-3-(4-fluorophenoxy)phenyl)-5-((6-(trifluoromethyl)pyridine-2-yl)amino)-1H-pyrazole-4-carboxamide] | > 30 µM | < 0.01 µM | > 30 µM
11 | NC(=O)c1c(-c2ccc(NS(=O)(=O)CC(F)(F)F)c(Oc3ccc(F)cc3)c2)n[nH]c1Nc1cccc(C(F)(F)F)n1 [Compound 148, 3-(3-(4-fluorophenoxy)-4-((2,2,2-trifluoroethyl)sulfonamido)phenyl)-5-((6-(trifluoromethyl)pyridine-2-yl)amino)-1H-pyrazole-4-carboxamide] | > 30 µM | < 0.01 µM | > 30 µM
12 | CCS(=O)(=O)Nc1ccc(-c2n[nH]c(Nc3cccc(C(F)(F)F)n3)c2C(N)=O)cc1Oc1ccc(F)cc1 [Compound 149, 3-(4-(ethylsulfonamido)-3-(4-fluorophenoxy)phenyl)-5-((6-(trifluoromethyl)pyridine-2-yl)amino)-1H-pyrazole-4-carboxamide] | > 30 µM | < 0.01 µM | > 30 µM
13 | NC(=O)c1c(-c2ccc(NS(=O)(=O)C(F)F)c(OCc3ccc(F)c(F)c3)c2)n[nH]c1Nc1cccc(C(F)(F)F)n1 [Compound 151, 3-(3-((3,4-difluorobenzyl)oxy)-4-((difluoromethyl)sulfonamido)phenyl)-5-((6-(trifluoromethyl)pyridine-2-yl)amino)-1H-pyrazole-4-carboxamide] | > 30 µM | < 0.01 µM | > 30 µM
14 | CCS(=O)(=O)Nc1ccc(-c2n[nH]c(Nc3cnccn3)c2C(N)=O)cc1OC1(c2ccccc2)CC1 [Compound 152, 3-(4-(ethylsulfonamido)-3-(1-phenylcyclopropoxy)phenyl)-5-(pyrazin-2-ylamino)-1H-pyrazole-4-carboxamide] | > 30 µM | < 0.01 µM | > 30 µM
15 | NC(=O)c1c(-c2ccc(NS(=O)(=O)CC(F)(F)F)cc2)n[nH]c1Nc1ccc(C(F)(F)F)cn1 [Compound 153, 3-(4-((2,2,2-trifluoroethyl)sulfonamido)phenyl)-5-((5-(trifluoromethyl)pyridine-2-yl)amino)-1H-pyrazole-4-carboxamide] | > 30 µM | < 0.01 µM | > 30 µM
16 | C[C@H](Oc1cc(-c2n[nH]c(Nc3ccccn3)c2C(N)=O)ccc1NS(=O)(=O)CC(F)(F)F)c1ccc(F)cc1 [Compound 154, (S)-3-(3-(1-(4-fluorophenyl)ethoxy)-4-((2,2,2-trifluoroethyl)sulfonamido)phenyl)-5-(pyridine-2-ylamino)-1H-pyrazole-4-carboxamide] | > 30 µM | < 0.01 µM | > 30 µM
17 | Cc1cnc(Nc2[nH]nc(-c3ccc(NS(=O)(=O)CC(F)(F)F)c(OCc4ccc(F)c(Cl)c4)c3)c2C(N)=O)cn1 [Compound 155, 3-(3-((3-chloro-4-fluorobenzyl)oxy)-4-((2,2,2-trifluoroethyl)sulfonamido)phenyl)-5-((5-methylpyrazin-2-yl)amino)-1H-pyrazole-4-carboxamide] | > 30 µM | < 0.01 µM | > 30 µM
18 | CCS(=O)(=O)Nc1ccc(-c2n[nH]c(Nc3cnccn3)c2C(N)=O)cc1OCc1ccc(F)cn1 [Compound 156, 3-(4-(ethylsulfonamido)-3-((5-fluoropyridin-2-yl)methoxy)phenyl)-5-(pyrazin-2-ylamino)-1H-pyrazole-4-carboxamide] | > 30 µM | < 0.01 µM | > 30 µM
19 | COc1cnc(Nc2[nH]nc(-c3ccc(NS(=O)(=O)CC(F)(F)F)c(OCc4ccc(Cl)cc4)c3)c2C(N)=O)cn1 [Compound 157, 3-(3-((4-chlorobenzyl)oxy)-4-((2,2,2-trifluoroethyl)sulfonamido)phenyl)-5-((5-methoxypyrazin-2-yl)amino)-1H-pyrazole-4-carboxamide] | > 30 µM | < 0.01 µM | > 30 µM
20 | CCS(=O)(=O)Nc1ccc(-c2n[nH]c(Nc3cnc(C4CC4)cn3)c2C(N)=O)cc1 [Compound 158, 5-((5-cyclopropylpyrazin-2-yl)amino)-3-(4-(ethylsulfonamido)phenyl)-1H-pyrazole-4-carboxamide] | > 30 µM | < 0.01 µM | > 30 µM
21 | COc1ccc(Nc2[nH]nc(-c3ccc(NS(=O)(=O)CC(F)(F)F)c(OCc4ccc(F)cc4)c3)c2C(N)=O)cn1 [Compound 159, 3-(3-((4-fluorobenzyl)oxy)-4-((2,2,2-trifluoroethyl)sulfonamido)phenyl)-5-((6-methoxypyridin-3-yl)amino)-1H-pyrazole-4-carboxamide] | > 30 µM | < 0.01 µM | > 30 µM
22 | NC(=O)c1c(-c2ccc(NS(=O)(=O)CC(F)(F)F)c(OCc3ccc(F)c(F)c3)c2)n[nH]c1Nc1ccccn1 [Compound 160, 3-(3-((3,4-difluorobenzyl)oxy)-4-((2,2,2-trifluoroethyl)sulfonamido)phenyl)-5-(pyridine-2-ylamino)-1H-pyrazole-4-carboxamide] | > 30 µM | < 0.01 µM | > 30 µM
23 | NC(=O)c1c(-c2ccc(NS(=O)(=O)CC(F)(F)F)c(OC3(c4ccccc4)CC3)c2)n[nH]c1Nc1cnccn1 [Compound 161, 3-(3-(1-phenylcyclopropoxy)-4-((2,2,2-trifluoroethyl)sulfonamido)phenyl)-5-(pyrazin-2-ylamino)-1H-pyrazole-4-carboxamide] | > 30 µM | < 0.01 µM | > 30 µM
24 | Cc1cnc(Nc2[nH]nc(-c3ccc(NS(=O)(=O)CC(F)(F)F)c(OCc4ccc(Cl)cc4)c3)c2C(N)=O)cn1 [Compound 162, 3-(3-((4-chlorobenzyl)oxy)-4-((2,2,2-trifluoroethyl)sulfonamido)phenyl)-5-((5-methylpyrazin-2-yl)amino)-1H-pyrazole-4-carboxamide] | > 30 µM | < 0.01 µM | > 30 µM
25 | Cc1cnc(Nc2[nH]nc(-c3ccc(NS(=O)(=O)CC(F)(F)F)c(OCc4ccc(F)cc4)c3)c2C(N)=O)cn1 [Compound 163, 3-(3-((4-fluorobenzyl)oxy)-4-((2,2,2-trifluoroethyl)sulfonamido)phenyl)-5-((5-methylpyrazin-2-yl)amino)-1H-pyrazole-4-carboxamide] | > 30 µM | < 0.01 µM | > 30 µM
